Test results published in patent US11447472B2, “Polymorophs of 5-aza-4′-thio-2′-deoxycytidine” (Southern Research Institute, priority 2020, dated 2022).
Converted amounts (≈) assume the structure as drawn.

How the values were obtained:
Format in all cases: physicochemical
[1] = Stability tests at 5° C.: mother liquors and solid phases of suspensions, HPLC; conditions: for chemical stability (purity over time) / purity decreased over time to: 5° C.; for chemical stability (purity over time): 70 hours; for purity decreased over time to: about 70 hours, area %
Method: Additional stability tests were performed at 5° C. Suspensions of the starting material were prepared in water, acetonitrile, ethanol (EtOH), and isopropanol. The mother liquors of the suspensions and the water solution were analyzed by HPLC at regular intervals over 3 days.
The solid phases from the suspensions were also evaluated for purity after 72 h. […] Therefore, the aza-T-dCyd appeared chemically stable in the solid phase after 70-hour incubation at 5° C.

[2] = Chemical stability of aza-T-dCyd in solutions (RT, 50° C., 80° C.), HPLC; conditions: for purity in solution (chemical stability): RT for 24 h, and 50° C. or 80° C. for 1 hour, HPLC
Method: The chemical stability of aza-T-dCyd was determined. Aza-T-dCyd was prepared in 1,4-dioxane, acetonitrile (ACN), isopropanol (IPA), and methyl ethyl ketone. Each solution was divided over 3 vials and incubated at RT for 24 hours, at 50° C. for 1 hour, or at 80° C. for 1 hour. The solutions were analyzed by HPLC at the start and after the incubation time.

[3] = Thermodynamic solubility, shake-flask method; conditions: for solubility at 24 h: organic solvent or mixture, thermodynamic from solid, RT
Method: The thermodynamic solubility of aza-T-dCyd was determined according to the shake-flask method. Suspensions of the crystalline aza-T-dCyd were prepared in 25 neat solvents. Small aliquots of solvent were added to the aza-T-dCyd until thin suspensions were obtained. Subsequently, the samples were equilibrated at RT under continuous stirring for 24 hours. After equilibration, a small aliquot of mother liquor was filtered and analyzed by HPLC. The concentration of the solute was determined against a calibration curve of the aza-T-dCyd. The solubility values of aza-T-dCyd at room temperature are listed in Table 3 according to the US Pharmacopeia's classification (USP29). The aza-T-dCyd was soluble in high boiling point solvents such as DMF and DMA. Generally, aza-T-dCyd was slightly or very slightly soluble in polar solvents and practically insoluble in non-polar solvents.

- chemical stability (purity over time) ([1]; IPA, mother liquor): remained stable
- purity decreased over time to ([1]; acetonitrile, mother liquor): 84%
- chemical stability (purity over time) ([1]; ethanol, mother liquor): remained stable
- Purity of Aza-T-dCYd after 72 h at 5° C. ([1]; solid phase from ACN suspension): 98.8 area %
- Purity of Aza-T-dCYd after 72 h at 5° C. ([1]; solid phase from EtOH suspension): 99.8 area %
- Purity of Aza-T-dCYd after 72 h at 5° C. ([1]; solid phase from IPA suspension): 99.4 area %
- purity of solids recovered from the suspensions ([1]; solid phases from the four solvents after 72 h at 5° C.): about 99 % (area %)
- purity decreased over time to ([1]; water solution): 78%
- purity in solution (chemical stability) ([2]; 1,4-dioxane): > 95%
- chemical stability in solution ([2]; IPA, heated at 80° C. (1 hour) or stored at RT for 24 h): degraded significantly
- purity in solution (chemical stability) ([2]; acetonitrile): > 95%
- chemical stability in solution ([2]; methyl ethyl ketone, 1 hour at 50° C. and 80° C., 24 hour at RT): significant decomposition
- USP29 class. ([3]; 2,2,2,-trifluoroethanol, Methanol (rows r7-r8), class wraps over two lines: Slightly Soluble): Slightly
- USP29 class. ([3]; Anisole to Toluene (rows r20-r33), class wraps over two lines: Practically insoluble): Practically
- USP29 class. ([3]; Dimethylformamide, N,N-dimethylacetamide (rows r5-r6)): Soluble
- USP29 class. ([3]; Ethanol to 1,2-dimethoxyethane (rows r9-r19), class wraps over three lines: Very Slightly Soluble): Very
- solubility at 24 h ([3]; 1,2-dimethoxyethane): 100 µg/mL (≈ 409 µM)
- solubility at 24 h ([3]; 1,4-dioxane): 300 µg/mL (≈ 1230 µM)
- solubility at 24 h ([3]; 1-propanol): 400 µg/mL (≈ 1640 µM)
- solubility at 24 h ([3]; 2,2,2,-trifluoroethanol): 4100 µg/mL (≈ 16800 µM)
- solubility at 24 h ([3]; 2-butanol): 300 µg/mL (≈ 1230 µM)
- solubility at 24 h ([3]; 2-methyltetrahydrofuran): 100 µg/mL (≈ 409 µM)
- solubility at 24 h ([3]; 2-propanol): 400 µg/mL (≈ 1640 µM)
- solubility at 24 h ([3]; 4-methyl-2-pentanone): 100 µg/mL (≈ 409 µM)
- solubility at 24 h ([3]; Acetone): 200 µg/mL (≈ 819 µM)
- solubility at 24 h ([3]; Acetonitrile): 100 µg/mL (≈ 409 µM)
- solubility at 24 h ([3]; Anisole): < 100 µg/mL
- solubility at 24 h ([3]; Chloroform): < 100 µg/mL
- solubility at 24 h ([3]; Cumene): < 100 µg/mL
- solubility at 24 h ([3]; Cyclohexane): < 100 µg/mL
- solubility at 24 h ([3]; Dichloromethane): < 100 µg/mL
- solubility at 24 h ([3]; Diethyl ether): < 100 µg/mL
- solubility at 24 h ([3]; Dimethylformamide): 65800 µg/mL (≈ 269000 µM)
- solubility at 24 h ([3]; Ethanol): 800 µg/mL (≈ 3270 µM)
- solubility at 24 h ([3]; Ethyl acetate): < 100 µg/mL
- solubility at 24 h ([3]; Ethyl formate): < 100 µg/mL
- solubility at 24 h ([3]; Heptane): < 100 µg/mL
- solubility at 24 h ([3]; Isopropyl acetate): < 100 µg/mL
- solubility at 24 h ([3]; Methanol): 3600 µg/mL (≈ 14700 µM)
- solubility at 24 h ([3]; Methyl ethyl ketone): < 100 µg/mL
- solubility at 24 h ([3]; N,N-dimethylacetamide): 60000 µg/mL (≈ 246000 µM)
- solubility at 24 h ([3]; Tetrahydrofuran): 100 µg/mL (≈ 409 µM)
- solubility at 24 h ([3]; Toluene): < 100 µg/mL
- solubility at 24 h ([3]; p-Xylene): < 100 µg/mL
- solubility at 24 h ([3]; tert-butyl methyl ether): < 100 µg/mL
SMILES: Nc1ncn([C@H]2C[C@H](O)[C@@H](CO)S2)c(=O)n1 [aza-T-dCyd, 5-Aza-4′-thio-2′-deoxycytidine]
